Data from ChEMBL document CHEMBL1201862, “PubChem BioAssay data set” (2004).
Activity calls are given as the source filed them.

Tests used:
Cysteine protease ATG4B = molecular target: T1, Cysteine protease ATG4B (Homo sapiens, UniProt Q9Y4P1); type: functional;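 further: Fluorescence-based dose-response confirmation assay measuring inhibition of ATG4B activity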
T1 sequence (Q9Y4P1 whole entry): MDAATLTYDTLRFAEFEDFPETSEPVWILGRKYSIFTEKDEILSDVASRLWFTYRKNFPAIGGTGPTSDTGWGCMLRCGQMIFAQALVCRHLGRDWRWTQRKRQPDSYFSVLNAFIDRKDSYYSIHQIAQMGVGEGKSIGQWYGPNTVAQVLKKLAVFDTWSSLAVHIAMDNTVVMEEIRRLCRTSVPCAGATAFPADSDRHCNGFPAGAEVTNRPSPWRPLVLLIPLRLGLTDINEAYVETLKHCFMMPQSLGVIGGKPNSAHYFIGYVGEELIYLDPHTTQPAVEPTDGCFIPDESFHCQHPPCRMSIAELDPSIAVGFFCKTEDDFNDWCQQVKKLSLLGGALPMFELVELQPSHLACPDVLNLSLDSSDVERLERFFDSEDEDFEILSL

Phospholipase A2 = Phospholipase A2 (Homo sapiens, UniProt P04054); type: functional;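 further: confirmatory dose-response counterscreen on phospholipase A2, testing hits that came from an ultra-high-throughput screen for ATG4B inhibitors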
HeLa = assay: HeLa cell cytotoxicity, dose response, cytotoxicity control for MITF activator project, CellTiter-Glo luminescence, cherry-pick samples (AID 540259); type: functional, cell-based; settings: Homo sapiens
[1] = molecular target: T2, Sentrin-specific protease 6 (Homo sapiens, UniProt Q9GZR1); type: functional;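 further: Luminescence-based dose-response confirmatory assay of SENP6 inhibition, following up an ultra-high-throughput screen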
T2 sequence (Q9GZR1 whole entry): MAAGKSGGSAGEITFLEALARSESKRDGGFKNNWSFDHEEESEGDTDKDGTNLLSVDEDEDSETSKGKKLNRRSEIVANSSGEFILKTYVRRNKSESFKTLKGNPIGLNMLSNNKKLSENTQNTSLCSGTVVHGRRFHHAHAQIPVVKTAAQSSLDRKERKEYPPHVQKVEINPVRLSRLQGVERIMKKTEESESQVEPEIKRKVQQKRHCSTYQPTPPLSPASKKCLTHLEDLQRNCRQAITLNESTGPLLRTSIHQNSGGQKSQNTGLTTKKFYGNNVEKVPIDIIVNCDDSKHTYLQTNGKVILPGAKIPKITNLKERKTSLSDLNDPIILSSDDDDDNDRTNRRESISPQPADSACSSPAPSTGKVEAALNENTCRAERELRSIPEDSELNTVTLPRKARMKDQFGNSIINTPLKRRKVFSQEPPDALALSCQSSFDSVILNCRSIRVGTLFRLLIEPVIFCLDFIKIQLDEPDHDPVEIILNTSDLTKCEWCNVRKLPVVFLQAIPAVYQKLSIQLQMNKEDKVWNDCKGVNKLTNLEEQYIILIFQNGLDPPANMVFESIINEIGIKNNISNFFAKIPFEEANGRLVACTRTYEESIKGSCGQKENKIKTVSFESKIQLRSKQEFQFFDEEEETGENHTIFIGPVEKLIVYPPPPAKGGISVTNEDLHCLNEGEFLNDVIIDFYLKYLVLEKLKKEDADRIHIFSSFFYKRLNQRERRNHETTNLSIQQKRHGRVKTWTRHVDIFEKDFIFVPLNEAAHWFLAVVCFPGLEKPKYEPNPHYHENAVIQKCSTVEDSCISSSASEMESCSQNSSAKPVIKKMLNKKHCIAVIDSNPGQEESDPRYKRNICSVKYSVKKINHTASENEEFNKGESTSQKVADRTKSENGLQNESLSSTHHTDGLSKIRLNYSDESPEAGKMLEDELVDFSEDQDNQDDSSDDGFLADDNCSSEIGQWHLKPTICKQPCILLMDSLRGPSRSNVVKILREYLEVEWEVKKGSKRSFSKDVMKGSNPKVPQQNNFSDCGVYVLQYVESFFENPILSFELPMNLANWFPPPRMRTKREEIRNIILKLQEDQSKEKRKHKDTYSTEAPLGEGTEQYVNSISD

Caspase-3 = molecular target: T3, Caspase-3 (Homo sapiens, UniProt P42574); type: functional;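 further: Dose-response selectivity test against caspase-3 for candidate inhibitors of sentrin-specific proteases (SENPs)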
T3 sequence (P42574 whole entry): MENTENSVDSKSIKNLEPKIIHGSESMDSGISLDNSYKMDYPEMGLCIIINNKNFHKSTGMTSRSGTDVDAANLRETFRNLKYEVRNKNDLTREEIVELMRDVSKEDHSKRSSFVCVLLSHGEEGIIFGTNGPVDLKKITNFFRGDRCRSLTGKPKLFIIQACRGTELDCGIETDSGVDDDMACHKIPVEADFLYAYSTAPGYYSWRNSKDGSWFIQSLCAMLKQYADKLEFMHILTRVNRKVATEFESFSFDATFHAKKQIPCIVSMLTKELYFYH

Streptococcus = assay: Group A Streptococcus viability loss, dose response, counter-screen for streptokinase expression inhibitor project, luminescence, BacTiterGlo (AID 1915); type: functional, organism-based;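 further: potency for reduction of bacterial viability or growth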
[2] = molecular target: T4, Sentrin-specific protease 7 (Homo sapiens, UniProt Q9BQF6); type: functional;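 further: Luminescence-based dose-response confirmation of ultra-high-throughput screening hits, measuring inhibition of SENP7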
T4 sequence (Q9BQF6 whole entry): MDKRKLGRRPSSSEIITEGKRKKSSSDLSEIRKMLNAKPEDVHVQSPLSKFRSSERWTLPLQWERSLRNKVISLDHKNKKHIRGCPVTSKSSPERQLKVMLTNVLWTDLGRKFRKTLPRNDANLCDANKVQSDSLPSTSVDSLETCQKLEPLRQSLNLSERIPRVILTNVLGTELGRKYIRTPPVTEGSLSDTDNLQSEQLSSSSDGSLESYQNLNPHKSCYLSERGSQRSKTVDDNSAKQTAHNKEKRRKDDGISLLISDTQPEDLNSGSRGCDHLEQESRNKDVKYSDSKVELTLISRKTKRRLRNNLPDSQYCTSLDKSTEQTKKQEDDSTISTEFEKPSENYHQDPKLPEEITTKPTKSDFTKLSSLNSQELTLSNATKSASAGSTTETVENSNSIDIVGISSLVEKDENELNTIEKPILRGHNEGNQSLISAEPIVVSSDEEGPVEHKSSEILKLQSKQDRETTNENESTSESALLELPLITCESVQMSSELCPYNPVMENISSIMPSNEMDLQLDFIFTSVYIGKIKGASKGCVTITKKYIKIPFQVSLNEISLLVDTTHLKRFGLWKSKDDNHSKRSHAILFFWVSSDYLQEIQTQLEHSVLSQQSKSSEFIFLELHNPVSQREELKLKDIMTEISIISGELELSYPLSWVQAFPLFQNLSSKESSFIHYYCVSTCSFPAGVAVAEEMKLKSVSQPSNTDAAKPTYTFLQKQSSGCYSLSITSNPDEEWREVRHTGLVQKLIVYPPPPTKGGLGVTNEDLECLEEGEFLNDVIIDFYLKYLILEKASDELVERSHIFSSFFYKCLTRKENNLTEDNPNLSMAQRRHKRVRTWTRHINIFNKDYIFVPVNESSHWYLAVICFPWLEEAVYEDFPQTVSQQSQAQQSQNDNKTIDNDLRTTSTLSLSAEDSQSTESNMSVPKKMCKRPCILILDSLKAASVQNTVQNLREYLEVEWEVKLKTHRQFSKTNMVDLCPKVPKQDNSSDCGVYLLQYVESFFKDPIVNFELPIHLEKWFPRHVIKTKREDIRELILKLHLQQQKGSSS

Streptokinase A = molecular target: T5, Streptokinase A (Streptococcus pyogenes serotype M1, UniProt P10520); assay: S. pyogenes streptokinase expression inhibitors, potency, dose response, plasminogen activation absorbance, OD405 (AID 1914); type: functional, Streptococcus pyogenes M1 GAS;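 further: secreted streptokinase activity via plasminogen activation per viability signal from cell pellet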
T5 sequence (P10520 whole entry): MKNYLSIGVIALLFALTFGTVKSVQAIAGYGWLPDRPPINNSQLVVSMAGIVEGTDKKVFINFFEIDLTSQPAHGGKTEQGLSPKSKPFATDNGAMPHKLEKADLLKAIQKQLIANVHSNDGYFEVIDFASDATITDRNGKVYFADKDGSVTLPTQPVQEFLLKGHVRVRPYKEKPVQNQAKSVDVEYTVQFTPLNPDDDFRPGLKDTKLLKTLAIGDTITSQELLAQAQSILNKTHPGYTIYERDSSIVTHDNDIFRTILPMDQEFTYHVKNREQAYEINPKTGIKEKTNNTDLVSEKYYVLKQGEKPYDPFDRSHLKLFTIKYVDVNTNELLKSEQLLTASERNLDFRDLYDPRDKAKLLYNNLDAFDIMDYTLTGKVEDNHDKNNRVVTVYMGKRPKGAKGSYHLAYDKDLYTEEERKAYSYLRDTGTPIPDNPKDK

[3] = molecular target: T6, Sentrin-specific protease 8 (Homo sapiens, UniProt Q96LD8); type: functional;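 further: luminescence read-out of SENP8 inhibition, dose-response confirmation following an ultra-high-throughput screen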
T6 sequence (Q96LD8 whole entry): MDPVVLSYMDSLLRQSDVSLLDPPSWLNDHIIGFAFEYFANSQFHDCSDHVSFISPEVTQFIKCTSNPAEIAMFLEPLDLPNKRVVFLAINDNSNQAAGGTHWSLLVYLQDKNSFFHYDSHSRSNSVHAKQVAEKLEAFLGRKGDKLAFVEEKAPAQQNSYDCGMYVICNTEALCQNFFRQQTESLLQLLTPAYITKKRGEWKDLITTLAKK

[4] = tested on: Streptococcus sp. 'group A'; assay: growth inhibition of control SK(-) GAS strain, dose response, counter-screen for streptokinase expression inhibitor project, luminescence, kanamycin, BacTiterGlo, confirmation (AID 1900); type: functional, organism-based
[5] = Vero E6 cell cytotoxicity, dose response, cytotoxicity control for non-replicating M. tuberculosis project, secondary assay (AID 492998); type: functional, VeroE6; settings: Vero C1008
cells = type: functional
[6] = THP-1 cell cytotoxicity, dose response, cytotoxicity control for non-replicating M. tuberculosis project (AID 489025); type: functional
Cytochrome P450 3A4 = Cytochrome P450 3A4 (Homo sapiens, UniProt P08684);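 further: CYP3A4 tested as one member of a cytochrome P450 panel screen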
Cytochrome P450 2C9 = Cytochrome P450 2C9 (Homo sapiens, UniProt P11712)
Cytochrome P450 2C19 = Cytochrome P450 2C19 (Homo sapiens, UniProt P33261); assay: Cytochrome panel assay with activity outcomes. Panel member name: p450-cyp2c19 Compounds with AC50 equal or less than 10 uM are considered active; type: functional; settings: read-out: AC50
H9c2 = assay: cells; type: functional, cell-based; settings: Rattus norvegicus, H9c2, Myocardium;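 further: confirmatory concentration-response retest of ultra-high-throughput screening hits for modulation of myocardial damage; cell death induced by hydrogen peroxide oxidative stress; compound pretreatment for 60 min then peroxide exposure for 2 h; potency is for protecting the cells against peroxide damage rather than for killing them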
[7] = microbe, parasite or virus in culture; type: functional; settings: Mycobacterium tuberculosis
H4 = assay: Luminescence Cell-Based Dose Response HTS to Identify Activators of 5'UTR Stem-Loop Driven Prion Protein mRNA Translation in H4 Neuroglioblastoma Cells. [Related pubchem assays: 1829 (Project Summary), 1814 (Primary HTS)]; type: functional; settings: Homo sapiens
[8] = HEp-2 cell cytotoxicity, dose response, cytotoxicity control for RSV inhibitor project, HTS (AID 2410); type: functional; settings: human respiratory syncytial virus

Chain of Phospholipase A2 (P04054 whole entry): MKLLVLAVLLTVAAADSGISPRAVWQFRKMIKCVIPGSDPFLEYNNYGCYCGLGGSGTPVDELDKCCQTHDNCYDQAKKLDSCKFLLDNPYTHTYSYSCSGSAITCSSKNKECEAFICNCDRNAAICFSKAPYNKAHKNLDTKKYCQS
Chain of Cytochrome P450 3A4 (P08684 whole entry): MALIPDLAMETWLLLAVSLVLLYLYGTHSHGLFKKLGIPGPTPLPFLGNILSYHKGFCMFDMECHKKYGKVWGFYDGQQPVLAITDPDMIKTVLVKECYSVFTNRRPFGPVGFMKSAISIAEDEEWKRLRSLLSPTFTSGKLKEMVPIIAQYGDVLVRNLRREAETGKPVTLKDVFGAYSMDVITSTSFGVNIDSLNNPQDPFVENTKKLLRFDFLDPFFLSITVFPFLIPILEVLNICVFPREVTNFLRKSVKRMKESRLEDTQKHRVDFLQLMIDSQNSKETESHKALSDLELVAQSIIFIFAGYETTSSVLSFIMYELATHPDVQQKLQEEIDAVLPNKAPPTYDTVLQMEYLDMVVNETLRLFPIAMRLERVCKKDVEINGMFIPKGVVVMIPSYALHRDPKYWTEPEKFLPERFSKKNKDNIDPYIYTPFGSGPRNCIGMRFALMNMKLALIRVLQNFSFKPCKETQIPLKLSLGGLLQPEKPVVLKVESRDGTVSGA
Chain of Cytochrome P450 2C9 (P11712 whole entry): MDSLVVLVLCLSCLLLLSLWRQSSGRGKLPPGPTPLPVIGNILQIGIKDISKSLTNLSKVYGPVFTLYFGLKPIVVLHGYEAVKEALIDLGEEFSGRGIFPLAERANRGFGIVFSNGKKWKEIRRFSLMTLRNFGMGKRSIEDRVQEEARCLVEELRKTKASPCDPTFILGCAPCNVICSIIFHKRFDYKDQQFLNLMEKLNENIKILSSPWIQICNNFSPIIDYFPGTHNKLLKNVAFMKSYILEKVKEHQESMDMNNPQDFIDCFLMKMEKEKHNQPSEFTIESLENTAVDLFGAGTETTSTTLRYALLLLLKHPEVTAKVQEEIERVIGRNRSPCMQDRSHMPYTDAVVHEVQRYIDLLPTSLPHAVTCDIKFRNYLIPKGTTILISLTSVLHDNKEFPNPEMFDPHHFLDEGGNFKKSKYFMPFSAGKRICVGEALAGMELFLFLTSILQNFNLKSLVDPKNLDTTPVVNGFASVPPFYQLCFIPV
Chain of Cytochrome P450 2C19 (P33261 whole entry): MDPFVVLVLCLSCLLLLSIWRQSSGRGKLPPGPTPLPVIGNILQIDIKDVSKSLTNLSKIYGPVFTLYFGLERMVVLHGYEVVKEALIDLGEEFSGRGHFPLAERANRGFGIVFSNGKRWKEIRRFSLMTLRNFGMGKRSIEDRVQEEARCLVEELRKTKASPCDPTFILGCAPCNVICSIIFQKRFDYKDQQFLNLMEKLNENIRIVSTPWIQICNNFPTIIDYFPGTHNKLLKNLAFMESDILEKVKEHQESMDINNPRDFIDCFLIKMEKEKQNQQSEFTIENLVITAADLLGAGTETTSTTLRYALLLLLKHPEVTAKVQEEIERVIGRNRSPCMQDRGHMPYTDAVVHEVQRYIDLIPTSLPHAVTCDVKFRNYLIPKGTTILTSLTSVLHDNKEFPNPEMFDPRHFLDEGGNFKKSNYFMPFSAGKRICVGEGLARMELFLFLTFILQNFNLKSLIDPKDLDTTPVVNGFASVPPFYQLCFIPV

With C=CCn1c(-c2oc3nc(-c4ccccc4)cc(-c4ccccc4)c3c2N)n[nH]c1=S the IC50 (Cysteine protease ATG4B) was 21.5 µM (inactive) and the IC50 (Phospholipase A2) was 20.7 µM (inactive).

In the case of C=CCn1cccc(C(=O)Nc2ccc(Cl)cc2)c1=O, the AC50 (HeLa) is reported as 99.8 µM (active).

With O=C(Nc1nc2c(cc3c4c(cccc42)CC3)s1)c1ccccc1Cl the IC50 (Cysteine protease ATG4B) was > 80 µM (inactive) and the IC50 (Phospholipase A2) was 15.7 µM (active).

For OC(c1ccc(OCc2ccccc2)cc1)c1nnc(-c2ccccc2)o1 (stereo not given), the IC50 [1] was 33.2 µM (active), the IC50 (Caspase-3) was 69.2 µM (active) and the EC50 (Streptococcus) was > 150 µM (not active). For the same molecule, the IC50 [2] was 12.8 µM (active), the EC50 (Streptokinase A) was 77.8 µM (active) and the IC50 [3] was 75.6 µM (active). The EC50 [4] was 19 µM (active).

With CC(C)c1nnc(NC(=O)c2c(O)c3cccc4c3n(c2=O)CCC4)s1 the CC50 [5] was 17.1 µM (active), the IC50 (cells) was 7.34 µM (active) and the CC50 [6] was 8.21 µM (active).

For CCC(C)NC(=O)C1CCN(C(=O)c2ccccc2)CC1 (stereo not given), the AC50 (Cytochrome P450 3A4) was “inconclusive”.

With O=C(COc1ccc(Cl)cc1)Nc1ccc(N2CCN(C(=O)c3ccco3)CC2)cc1 the AC50 (Cytochrome P450 2C9) was 1.12 µM (inconclusive) and the AC50 (Cytochrome P450 3A4) was “inconclusive”.

With C[C@]12CC[C@H]3c4ccc(O)cc4CC[C@@H]3[C@H]1CC[C@@H]2OC(=O)CCC1CCCC1 the AC50 (Cytochrome P450 2C19) was 6.31 µM (inconclusive) and the AC50 (Cytochrome P450 3A4) was “inconclusive”.

In the case of CC(C)Nc1cc(C(C)(C)C)nc2c(-c3ccccc3)cnn12, the AC50 (HeLa) is reported as 58.2 µM (active), the EC50 (Streptococcus) is reported as 15.9 µM (active) and the EC50 (Streptokinase A) is reported as 13.6 µM (active). The EC50 [4] was 6.01 µM (active).

With O=C1N=C(N2CCC(Cc3ccccc3)CC2)S/C1=C/c1c[nH]nc1-c1ccccc1 the AC50 (Cytochrome P450 3A4) was “inconclusive”.

In the case of CN(C)S(=O)(=O)c1ccc2[nH]cc(/C=C/c3nc4ccccc4c(=O)n3-c3ccccc3)c2c1, the IC50 (Cysteine protease ATG4B) is reported as 18.6 µM (active), the IC50 (Phospholipase A2) is reported as 46.6 µM (inactive) and the IC50 (H9c2) is reported as > 79 µM (inactive).

For COc1ccc2oc3ccc(OC)cc3c(=O)c2c1, the IC50 [1] was 15.1 µM (active), the IC50 (Caspase-3) was 11 µM (active) and the IC50 [2] was 9.8 µM (active). For the same molecule, the IC50 [3] was 69.1 µM (active).

In the case of O=C(NCCC1=CCCCC1)NC12CC3CC(CC(C3)C1)C2, the AC50 (HeLa) is reported as 215 µM (active), the CC50 [7] is reported as > 40 µM (active) and the EC50 (H4) is reported as 6.24 µM (active).

In the case of Cc1nc(N/N=C\c2ccc3c(c2)OCO3)sc1C, the IC50 [1] is reported as 39.1 µM (active), the IC50 (Caspase-3) is reported as 33.2 µM (active) and the EC50 (Streptococcus) is reported as 31.7 µM (active). The IC50 [2] was 12 µM (active), the EC50 (Streptokinase A) was > 150 µM (not active) and the IC50 [3] was 72.7 µM (active). For the same molecule, the EC50 [4] was 23.6 µM (active).

With Cc1ccc(S(=O)(=O)Nc2ccccc2/C=N/c2nc3ccccc3n2C(C)C)cc1 the IC50 (Cysteine protease ATG4B) was 15.1 µM (active), the CC50 [8] was 14.9 µM (active) and the IC50 (Phospholipase A2) was 13.2 µM (active).
